Data set [1] is described as follows: LNP size and polydispersity, Zetasizer Ultra. Type of data set: physicochemical.
Data set [2] is described as follows: mRNA encapsulation efficiency, Quant-iT RiboGreen RNA Assay. Type of data set: physicochemical.
Data set [3] concerns Balb/c mice. In words: EPO levels in plasma, EPO MSD kit (Example 6). It counts as in vivo. The note with it: mRNA dose 5 μg FLUC + 5 μg EPO, intravenous.
Data set [4] is described as follows: Apparent LNP pKa, TNS assay. It counts as physicochemical. The settings on record: LNP with FLUC/EPO 1:1 mRNA. The procedure:
For pKa measurement, a […] assay was conducted according to those described in Sabnis et al., Molecular Therapy, 26(6):1509-19), which is incorporated herein by reference in its entirety. Briefly, 20 buffers (10 mM sodium phosphate, 10 mM sodium borate, 10 mM sodium citrate, and 150 mM sodium chloride, in distilled Water) of unique pH values ranging from 3.0-12.0 were prepared using 1M sodium hydroxide and 1M hydrochloric acid. 3.25 μL of a LNP composition (0.04 mg/mL mRNA, in PBS) was incubated with 2 μL of TNS reagent (0.3 mM, in DMSO) and 90 μL of buffer for each pH value (described above) in a 96-well black-walled plate. Each pH condition was performed in triplicate wells. The TNS fluorescence was measured using a Biotek Cytation Plate reader at excitation/emission wavelengths of 321/445 nm. The fluorescence values were then plotted and fit using a 4-parameter sigmoid curve. From the fit, the pH value yielding the half-maximal fluorescence was calculated and reported as the apparent LNP pKa value.

The subject of data set [5] is Balb/c mice. Briefly: In-vivo bioluminescent imaging of LNP compositions (Example 6). The settings on record: for Bioluminescence (IV) Liver / Bioluminescence (IV) Lung / Bioluminescence (IV) Spleen / Bioluminescence (IV) Whole Body: 4-6 hours post-dose; for Spleen: Liver Ratio: intravenous.
The mark [6] stands for this setting: mRNA dose 5 μg FLUC (CRE/FLUC 1:1 LNP).

`CCCCCC(CCCCC)CCCOC(=O)CCCCCCCN(CCCCCCCC(=O)OCCCC(CCCCC)CCCCC)C(=O)CN1CCCC1` [Compound 2233, bis(4-pentylnonyl) 8,8′-((2-(pyrrolidin-1-yl)acetyl)azanediyl) dioctanoate]: in data set [1] (LNP with FLUC/EPO 1:1 mRNA), the PDI worked out at 0.04 and the “Size (nm)” value is 85.5 nm. The “% EE” value in data set [2] (LNP with FLUC/EPO 1:1 mRNA) is given as 91.2%. Moreover, the hEPO in the data set on Balb/c mice [3] is on record as 2.8E + 06. In data set [4], the “pKa (TNS)” value is given as 6.83. In the data set with Balb/c mice [5] (mRNA dose 5 μg FLUC + 5 μg EPO), the “Bioluminescence (IV) Liver” value is listed as 6.1E + 07, the “Bioluminescence (IV) Lung” value came out at 4.1E + 04, the “Bioluminescence (IV) Spleen” value worked out at 4.7E + 06 and the “Bioluminescence (IV) Whole Body” value came out at 5.4E + 08. Further, the “Spleen: Liver Ratio” value in the data set with Balb/c mice [5] (mRNA dose 5 μg FLUC + 5 μg EPO) is given as 0.077.

On to `CCCCCC(CCCCC)CCCOC(=O)CCCCCCCN(CCCCCCCC(=O)OCCCC(CCCCC)CCCCC)C(=O)CCN1CCC(O)C1` (centres unmarked) [Compound 2235, bis(4-pentylnonyl) 8,8′-((3-(3-hydroxypyrrolidin-1-yl)propanoyl)azanediyl)dioctanoate], for which, in data set [1] (LNP with FLUC/EPO 1:1 mRNA), the PDI was 0.067 and the “Size (nm)” value came out at 84.84 nm. Also, the “% EE” value in data set [2] (LNP with FLUC/EPO 1:1 mRNA) amounted to 97.5%. In addition, the hEPO in the data set on Balb/c mice [3] came out at 2.2E + 02. In data set [4], the “pKa (TNS)” value stood at 7.76. Moreover, in the data set on Balb/c mice [5] (mRNA dose 5 μg FLUC + 5 μg EPO), the “Bioluminescence (IV) Liver” value is 2.0E + 03, the “Bioluminescence (IV) Lung” value stood at 7.6E + 03, the “Bioluminescence (IV) Spleen” value is reported as 2.9E + 04 and the “Bioluminescence (IV) Whole Body” value worked out at 9.8E + 03. Further, in the data set on Balb/c mice [5] (mRNA dose 5 μg FLUC + 5 μg EPO), the “Spleen: Liver Ratio” value was 14.407.

For `CCCCCCCCCCCOC(=O)CCCCCN(CCCCCCCC(=O)OC(CCCCCCCC)CCCCCCCC)C(C)CO` (centres unmarked) [Compound 2249, heptadecan-9-yl 8-((1-hydroxypropan-2-yl)(6-oxo-6-(undecyloxy)hexyl)amino)octanoate], in data set [1] (LNP with FLUC/EPO 1:1 mRNA), the PDI is given as 0.08 and the “Size (nm)” value amounted to 86.05 nm. Moreover, the “% EE” value in data set [2] (LNP with FLUC/EPO 1:1 mRNA) is 93.3%. For the same compound, in the data set on Balb/c mice [3], the hEPO stood at 7.6E + 05. Also, in data set [4], the “pKa (TNS)” value worked out at 5.84. Also, in the data set on Balb/c mice [5] (mRNA dose 5 μg FLUC + 5 μg EPO), the “Bioluminescence (IV) Liver” value was determined as 1.2E + 07, the “Bioluminescence (IV) Lung” value stood at 7.9E + 03, the “Bioluminescence (IV) Spleen” value is reported as 3.2E + 06 and the “Bioluminescence (IV) Whole Body” value is on record as 7.2E + 07. In the data set with Balb/c mice [5] (mRNA dose 5 μg FLUC + 5 μg EPO), the “Spleen: Liver Ratio” value is on record as 0.258.

Consider `CCCCCCCCCCCOC(=O)CCCCCN(CCCCCCCC(=O)OC(CCCCCCCC)CCCCCCCC)C(C)(C)CO` [Compound 2250, heptadecan-9-yl 8-((1-hydroxy-2-methylpropan-2-yl)(6-oxo-6-(undecyloxy)hexyl)amino)octanoate], for which, in data set [1] (LNP with FLUC/EPO 1:1 mRNA), the PDI is given as 0.068 and the “Size (nm)” value is 73.75 nm. Also, in data set [2] (LNP with FLUC/EPO 1:1 mRNA), the “% EE” value came to 92.2%. In the data set with Balb/c mice [3], the hEPO turned out to be 9.5E + 05. Also, in data set [4], the “pKa (TNS)” value is on record as 6.31. Further, in the data set on Balb/c mice [5] (mRNA dose 5 μg FLUC + 5 μg EPO), the “Bioluminescence (IV) Liver” value was found to be 2.7E + 07, the “Bioluminescence (IV) Lung” value stood at 7.9E + 03, the “Bioluminescence (IV) Spleen” value is listed as 2.7E + 06 and the “Bioluminescence (IV) Whole Body” value was determined as 1.5E + 08. Besides, the “Spleen: Liver Ratio” value with Balb/c mice [5] (mRNA dose 5 μg FLUC + 5 μg EPO) was 0.099.

Consider `CCCCCC(CCCCC)CCCOC(=O)CCCCCCCN(CCCCCCCC(=O)OCCCC(CCCCC)CCCCC)C(=O)CCN1CCCC1` [Compound 2141, bis(4-pentylnonyl) 8,8′-((3-(pyrrolidin-1-yl)propanoyl)azanediyl)dioctanoate], for which, in data set [1] (LNP with CRE/FLUC 1:1 mRNA), the PDI is recorded as 0.11 and the “Size (nm)” value was determined as 79.4 nm. Also, in data set [1] (LNP with EGFP mRNA), the PDI stood at 0.21 and the “Size (nm)” value turned out to be 109.3 nm. Besides, in data set [1] (LNP with FLUC/EPO 1:1 mRNA), the PDI is 0.06 and the “Size (nm)” value is recorded as 73.83 nm. Also, in data set [2] (LNP with CRE/FLUC 1:1 mRNA), the “% EE” value was 95.6%. Moreover, the “% EE” value in data set [2] (LNP with EGFP mRNA) was 95.4%. In data set [2] (LNP with FLUC/EPO 1:1 mRNA), the “% EE” value was found to be 95.9%. The hEPO in the data set on Balb/c mice [3] is 2.1E + 03. Further, the “pKa (TNS)” value in data set [4] was determined as 7.57. In addition, in the data set on Balb/c mice [5] (setting [6]), the “Bioluminescence (IV) Liver” value is listed as 5.6E + 05, the “Bioluminescence (IV) Lung” value is 7.1E + 03, the “Bioluminescence (IV) Spleen” value is given as 2.3E + 05 and the “Bioluminescence (IV) Whole Body” value is on record as 5.5E + 06. Besides, the “Spleen: Liver Ratio” value in the data set on Balb/c mice [5] (setting [6]) is given as 0.527. Moreover, in the data set on Balb/c mice [5] (mRNA dose 5 μg FLUC + 5 μg EPO), the “Bioluminescence (IV) Liver” value stood at 3.1E + 04, the “Bioluminescence (IV) Lung” value stood at 6.8E + 04, the “Bioluminescence (IV) Spleen” value turned out to be 1.3E + 05 and the “Bioluminescence (IV) Whole Body” value turned out to be 1.9E + 05. In the data set with Balb/c mice [5] (mRNA dose 5 μg FLUC + 5 μg EPO), the “Spleen: Liver Ratio” value is on record as 6.131.

`CCCCCCC(CCCCCC)CCCOC(=O)CCCCCCCN(CCCCCCCC(=O)OCCCC(CCCCCC)CCCCCC)C(=O)CCCN(C)C` [Compound 2133, bis(4-hexyldecyl) 8,8′-((4-(dimethylamino)butanoyl)azanediyl) dioctanoate]: in data set [1] (LNP with FLUC/EPO 1:1 mRNA), the PDI stood at 0.08 and the “Size (nm)” value was found to be 87.7 nm. In addition, the “% EE” value in data set [2] (LNP with FLUC/EPO 1:1 mRNA) is listed as 98.7%. For the same compound, in the data set with Balb/c mice [3], the hEPO is on record as 2.5E + 02. The “pKa (TNS)” value in data set [4] came to 7.96. Also, in the data set with Balb/c mice [5] (mRNA dose 5 μg FLUC + 5 μg EPO), the “Bioluminescence (IV) Liver” value is 4.4E + 04, the “Bioluminescence (IV) Lung” value is reported as 5.8E + 04, the “Bioluminescence (IV) Spleen” value came to 3.9E + 04 and the “Bioluminescence (IV) Whole Body” value is reported as 3.8E + 04. For the same compound, the “Spleen: Liver Ratio” value in the data set with Balb/c mice [5] (mRNA dose 5 μg FLUC + 5 μg EPO) is given as 1.574.

(Values after patent publication US20250049948A1, “NOVEL IONIZABLE LIPIDS AND LIPID NANOPARTICLES AND METHODS OF USING THE SAME” (Sail Biomedicines, Inc., priority 2021, published 2025).)
